Experimental findings from patent EP0338756B1, “Use of 1,2,4-trioxanes as antiparasitics and anthelmintics” (OXACO S.A., priority 1988, dated 1989) are described below.

For assay [1], the system named is Onchocerca gutturosa. Put plainly: Onchocerca gutturosa motility, using parasites, medium, serum, cells and test drugs. The settings on record: with serum and cells. Here is the method: (§1) Testing in vitro against Onchocerca gutturosa is a valid model for activity against Onchocerca volvulus. Testing of test drugs (Compounds 1, 2, 3, 4, 5, 7, 8, 9, 11, and 12 of Table 1) against the parasitic worms Onchocerca gutturosa was carried out in accordance with the method described in J Helminth (1987) 60, 271, firstly using parasites, medium, serum, cells and test drugs.

Assay [2] deals with Onchocerca gutturosa. Put plainly: Tetrazolium colorimetric test (formazan formation), using parasites, medium, cells and test drug. The settings on record: 5x10⁻⁵ M printed for the test Compounds. Here is the method: A suitable colorimetric assay uses formation of formazan, a blue dye, from tetrazolium cation generated by 3-[…] bromide (J Helminth (1987) 60, 271). Firstly, Compounds 1, 2, 3, 4, 5, 7, 8, 9, 11 and 12, along with artemisinin and arteether were tested using parasites, medium, cells and test drug.

The subject of assay [3] is Onchocerca gutturosa. The experiment in a line: Onchocerca gutturosa motility, using parasites, medium and drug. To be noted: medium and drug only, time not given. Here is the method:
as §1, with “drugs. Secondly, test drugs (Compounds 2, 3, 4, 7, 8, 9 and 12 of Table 1) were tested using parasites, medium and drug. […] However, between 4 and 7 days, all the tested Compounds had completely immobilized the worms. Under these conditions, commercial anti-helminthic drugs and artemisinin also cut motility by some 30-40%.” for “drugs.”

Compound `CC1(C)OO[C@]2(c3ccccc3)CCC(c3ccccc3)=C[C@@H]2O1` (relative stereo) [Compound 12] came in with a reduced motility with Onchocerca gutturosa [1] (after 7 days) of 100%. Besides, the effect on motility entry in the assay with Onchocerca gutturosa [1] (two to three days exposure) is on record as “markedly inhibitory”. Moreover, the “inhibition of formazan formation” value with Onchocerca gutturosa [2] was “more than 90%”.

`CCO[C@H]1O[C@@H]2O[C@@]3(C)CC[C@H]4[C@H](C)CC[C@@H]([C@H]1C)[C@@]24OO3` [arteether]: the reduced motility with Onchocerca gutturosa [1] (after a day) is recorded as 30%.

Consider `C[C@@H]1CC[C@H]2[C@@H](C)C(=O)O[C@@H]3O[C@@]4(C)CC[C@@H]1[C@]32OO4` [artemisinin, Artemisinin], for which the effect on motility result with Onchocerca gutturosa [1] (a day's exposure) is “ineffective”. The cut motility with Onchocerca gutturosa [3] is 30-40%.
